Measurements from patent US20140256644A1, “Treatment of Muscular Conditions and Muscular Dystrophies” (priority 2011, published 2014).
“Also recorded” adds a separate entry of the source. Where no end group is shown, it is not given here.

Legend:
[1] = system: adult mdx FDB myofibers; experiment: Stretch-induced ROS production (X-ROS), DCF fluorescence, 10% axial stretch (MuST); assay type: cell-based, mouse; conditions: adult mdx FDB fibers, 10% stretch, gp91dsTAT 2 μM, fulvene-5 5 μM, L-NAME 1 mM, colchicine, nocodozole, latrunculin A 10 μM
Description: After euthanasia by CO2 inhalation, flexor digitorum brevis (FDB) muscle was harvested bilaterally and incubated in DMEM with 1 μl/ml gentamicin, and 0.4% collagenase A (Roche Applied Science, Indianapolis, Ind., USA) as described. Single intact myofibers were isolated by gentle trituration. The fibers were imaged and/or fixed for immunolabeling within an 8-h period (unless indicated), thus avoiding morphological changes that can occur in FDB fibers that are cultured for a prolonged period.
All experiments were performed in custom rotating glass-bottom chamber (Four-hour Day Foundation, Towson, Md.) equipped with bath perfusion and mounted on BioRad Radiance fluorescent laser scanning confocal attached to an Olympus IX-70 inverted microscope (Olympus Corp., Centre Valley, Pa.). Cells were attached using micro-tweezers coated with the biological adhesive, MyoTak (Ionoptix, Milton, Mass.) and connected to a high-sensitivity force transducer (KG7) equipped with an anti-oscillation filter and a piezo-electric length controller (World Precision Instruments, Sarasota, Fla.). The force transducer and length controller were mounted on folded motorized micromanipulators (Siskiyou, Grants Pass, Oreg.) allowing to place the tweezers above the cell of interest. The rotating chamber, the tweezer-equipped force transducer and length controller and the micromanipulators formed the Muscle Stretch Tool (MUST).
(§1) Myofibers were attached at both ends by gently closing the MyoTak-coated tweezers without compressing the cell membrane and then lifting the cell from the bottom of the chamber. Cell sarcomere length was monitored using a High-speed Video Sarcomere Length camera (Aurora Scientific, Aurora, ON, CAN) and the voltage into the length controller was adjusted to produce a stretch equal to 10% of resting sarcomere length. The tension signal from the force transducer and positional output from the length controller were recorded at 1 kHz using a 600A data acquisition system from Aurora.
ROS was measured using 6-carboxy-2″,7″-dichlorodihydrofluorescein diacetate (DCFH-DA) (Invitrogen, Carlsbad, Calif.) in dimethyl sulfoxide (DMSO). FDB fibers were suspended in HEPES-buffered Ringer's solution containing (in mM): 140 NaCl, 4.0 KCl, 1.0 MgSO4, 5.0 NaHCO3, 10.0 glucose, 10.0 HEPES at pH 7.3 and incubated with Ringer's solution containing DCFH-DA (10 μM) for 30 minutes at room temperature. DCF-loaded cells were mounted on MUST and imaged using confocal line-scanning microscopy at 2 ms/line with very low laser intensity to prevent artifactual amplification of the signal due to light oxidation. DCF fluorescence signals were processed as described (16). The NOX2 specific inhibitor gp91dsTAT (2 μM), NOX inhibitor fulvene-5 (5 μM) and nitric oxide synthase inhibitor L-NAME (1 mM) was used to verify the source of ROS. Interrogation of cytoskeletal involvement in stretch dependent ROS or Ca^2+ influx was done with pharmacological methods.

[2] = system: microtubule network in isolated FDB myofibers; experiment: Fluorescence labeling and quantification of α-tubulin (microtubule network density); assay type: cell-based, mouse; conditions: FDB fibers; colchicine 10 μM, taxol 10 μM
Description: Isolated intact FBDs were plated on ECM gel from Engelbreth-Holm-Swarm murine sarcoma coated imaging dishes (MatTek, Ashland, Mass.). Following treatment, plated myofibers were fixed with 2% paraformaldehyde, permeabilized with 0.1% Triton X-100 in phosphate buffered saline (PBS), blocked in 8% bovine serum albumin in PBS, and then labeled overnight with an antibody to α-tubulin conjugated to Alexa Fluor 488 (anti-mouse; Invitrogen, Carlsbad, Calif., USA). Digital images were obtained with a BioRad Radiance fluorescent laser scanning confocal attached to an Olympus IX-70 inverted microscope. Laser intensity was adjusted on a sample-to-sample basis to maximize amount of microtubules that are visualized. A 35-image Z-stack was taken at 0.5 μm interval and the most representative 9 frames were stacked together using ImageJ (NIH, USA) to form a composite image. Quantification was performed on the binary image representation of the 9-image stack. Background was subtracted uniformly and image was transformed into a binary using ImageJ unbiased binary function. A uniform region of interest was selected and mean intensity measured.

[3] = system: wild-type FDB fibers; experiment: Cytoskeletal stiffness by axial compression, atomic force microscopy; conditions: 10 μM, 2 hrs
[4] = system: adult mdx mice; experiment: In vitro isometric contraction-induced injury of EDL muscle after in vivo treatment; design: species or system mouse; conditions: mdx mice treated in vivo (colchicine 1 mg/kg IP 4 hours; apocynin 3 mg/kg IP 3 days), 20 isometric contractions
Description: Following CO2 asphyxiation and cervical dislocation, single EDL muscles were surgically excised with ligatures at each tendon (5-0 silk suture) and mounted in an in vitro bath between a fixed post and force transducer (Aurora 300B-LR) operated in isometric mode. The muscle was maintained in physiological saline solution and maintained at 30° C. under aeration with 95 O2/5 CO2 (%) throughout the experiment. Resting tension, muscle length and stimulation current were iteratively adjusted for each muscle to obtain optimal twitch force. During a 5 minute equilibration, single twitches were elicited at every 30 seconds with electrical pulses (0.5 msec) through platinum electrodes running parallel to the muscle. The injury protocol used to induce a force deficit (39) consisted of 20 maximum isometric contractions (1 sec at 100 Hz) separated by 1 minute. The absolute isometric force of each muscle during the contraction protocol was normalized to the maximum isometric force (Po) produced by the muscle during the 20-contraction protocol.

[5] = system: adult mdx mice; experiment: In vivo eccentric contraction-induced injury in mdx; conditions: for eccentric contraction induced force loss: colchicine 1 mg/kg IP 4 hours or apocynin 3 mg/kg IP 3 days, 20 eccentric contractions; for eccentric contraction induced force drop (FIG. 13): dimethylaminoparthenolide 50 mg/kg via gavage per day/3 days, Gp91ds-TAT 5 ug/g body weight, 2 doses one day apart
Description: (§2) Anaesthetized mice (isoflurane) were placed on a thermostatically controlled table, the knee was fixed with a pin and the foot was firmly fixed to a footplate on the motor shaft. Contraction was elicited by percutaneous electrical stimulation of the sciatic nerve. Optimal isometric tetanic torque was determined with increasing current with a minimum of 30 s between each contraction to avoid fatigue. Eccentric contractions at maximal isometric torque (0.2 ms pulse train at 100 Hz) were assayed for the resistance to muscle damage.
Eccentric contractions were achieved by lengthening the muscle during maximal contraction. This was achieved by translating the footplate 30° at a velocity of 40 mm/s following the first 200 msec of the isometric contraction. This protocol consisted of 20 eccentric contractions with 1 minute pauses in between. The decrease in the peak isometric force prior to the eccentric phase was taken as an indication for muscle damage. To test the role of X-ROS in the functional status of mdx muscle, adult mdx mice were treated with either colchicine (1 mg/kg IP; 4 hours) or apocynin (3 mg/kg IP; 3 days) in vivo to reduce X-ROS signaling followed by a contraction protocol to produce mechanical stress.

[6] = system: wild-type (WT) mice; experiment: In vivo eccentric contraction-induced injury in wild-type mice (gastrocnemius); design: species or system mouse
Description: WT mice were treated in vivo with either vehicle, or a combination of colchicine and apocynin. Following treatment, the gastrocnemius muscle was assayed for susceptibility to in vivo eccentric contraction injury.
as §2
Eccentric contractions were achieved by lengthening the muscle during maximal contraction. This was achieved by translating the footplate 30° at a velocity of 40 mm/s following the first 200 msec of the isometric contraction. This protocol consisted of 20 eccentric contractions with 1 minute pauses in between. The decrease in the peak isometric force prior to the eccentric phase was taken as an indication for muscle damage.

[7] = system: adult mdx FDB myofibers; experiment: Stretch-dependent sarcolemmal Ca2+ influx, fluo-4 fluorescence rate; assay type: cell-based, mouse; conditions: adult mdx FDB fibers, acute stretch, GsMTx4 2.5 μM, colchicine 10 μM
Description: After euthanasia by CO2 inhalation, flexor digitorum brevis (FDB) muscle was harvested bilaterally and incubated in DMEM with 1 μl/ml gentamicin, and 0.4% collagenase A (Roche Applied Science, Indianapolis, Ind., USA) as described. Single intact myofibers were isolated by gentle trituration. The fibers were imaged and/or fixed for immunolabeling within an 8-h period (unless indicated), thus avoiding morphological changes that can occur in FDB fibers that are cultured for a prolonged period. […]
as §1
Similar to DCF measurements, FDBs were suspended in Ringer's solution containing 5 μM fluo-4-AM (Invitrogen, Carlsbad, Ca) for 30 minutes at room temperature. […] Fluo-4 signal slopes before stretch and after were measured.

[8] = system: wild-type FDB fibers; experiment: Stretch activated calcium influx, Mn quench assay; conditions: parthenolide 10 uM 2 hrs, Gp91ds-TAT 1 uM 30 minutes
[9] = target: Piezo2 (Homo sapiens, UniProt Q9H5I5); conditions: cited from earlier work
[10] = system: Piezo1; conditions: cited from earlier work
Sequence of Piezo1 (Q92508 whole entry, species assumed): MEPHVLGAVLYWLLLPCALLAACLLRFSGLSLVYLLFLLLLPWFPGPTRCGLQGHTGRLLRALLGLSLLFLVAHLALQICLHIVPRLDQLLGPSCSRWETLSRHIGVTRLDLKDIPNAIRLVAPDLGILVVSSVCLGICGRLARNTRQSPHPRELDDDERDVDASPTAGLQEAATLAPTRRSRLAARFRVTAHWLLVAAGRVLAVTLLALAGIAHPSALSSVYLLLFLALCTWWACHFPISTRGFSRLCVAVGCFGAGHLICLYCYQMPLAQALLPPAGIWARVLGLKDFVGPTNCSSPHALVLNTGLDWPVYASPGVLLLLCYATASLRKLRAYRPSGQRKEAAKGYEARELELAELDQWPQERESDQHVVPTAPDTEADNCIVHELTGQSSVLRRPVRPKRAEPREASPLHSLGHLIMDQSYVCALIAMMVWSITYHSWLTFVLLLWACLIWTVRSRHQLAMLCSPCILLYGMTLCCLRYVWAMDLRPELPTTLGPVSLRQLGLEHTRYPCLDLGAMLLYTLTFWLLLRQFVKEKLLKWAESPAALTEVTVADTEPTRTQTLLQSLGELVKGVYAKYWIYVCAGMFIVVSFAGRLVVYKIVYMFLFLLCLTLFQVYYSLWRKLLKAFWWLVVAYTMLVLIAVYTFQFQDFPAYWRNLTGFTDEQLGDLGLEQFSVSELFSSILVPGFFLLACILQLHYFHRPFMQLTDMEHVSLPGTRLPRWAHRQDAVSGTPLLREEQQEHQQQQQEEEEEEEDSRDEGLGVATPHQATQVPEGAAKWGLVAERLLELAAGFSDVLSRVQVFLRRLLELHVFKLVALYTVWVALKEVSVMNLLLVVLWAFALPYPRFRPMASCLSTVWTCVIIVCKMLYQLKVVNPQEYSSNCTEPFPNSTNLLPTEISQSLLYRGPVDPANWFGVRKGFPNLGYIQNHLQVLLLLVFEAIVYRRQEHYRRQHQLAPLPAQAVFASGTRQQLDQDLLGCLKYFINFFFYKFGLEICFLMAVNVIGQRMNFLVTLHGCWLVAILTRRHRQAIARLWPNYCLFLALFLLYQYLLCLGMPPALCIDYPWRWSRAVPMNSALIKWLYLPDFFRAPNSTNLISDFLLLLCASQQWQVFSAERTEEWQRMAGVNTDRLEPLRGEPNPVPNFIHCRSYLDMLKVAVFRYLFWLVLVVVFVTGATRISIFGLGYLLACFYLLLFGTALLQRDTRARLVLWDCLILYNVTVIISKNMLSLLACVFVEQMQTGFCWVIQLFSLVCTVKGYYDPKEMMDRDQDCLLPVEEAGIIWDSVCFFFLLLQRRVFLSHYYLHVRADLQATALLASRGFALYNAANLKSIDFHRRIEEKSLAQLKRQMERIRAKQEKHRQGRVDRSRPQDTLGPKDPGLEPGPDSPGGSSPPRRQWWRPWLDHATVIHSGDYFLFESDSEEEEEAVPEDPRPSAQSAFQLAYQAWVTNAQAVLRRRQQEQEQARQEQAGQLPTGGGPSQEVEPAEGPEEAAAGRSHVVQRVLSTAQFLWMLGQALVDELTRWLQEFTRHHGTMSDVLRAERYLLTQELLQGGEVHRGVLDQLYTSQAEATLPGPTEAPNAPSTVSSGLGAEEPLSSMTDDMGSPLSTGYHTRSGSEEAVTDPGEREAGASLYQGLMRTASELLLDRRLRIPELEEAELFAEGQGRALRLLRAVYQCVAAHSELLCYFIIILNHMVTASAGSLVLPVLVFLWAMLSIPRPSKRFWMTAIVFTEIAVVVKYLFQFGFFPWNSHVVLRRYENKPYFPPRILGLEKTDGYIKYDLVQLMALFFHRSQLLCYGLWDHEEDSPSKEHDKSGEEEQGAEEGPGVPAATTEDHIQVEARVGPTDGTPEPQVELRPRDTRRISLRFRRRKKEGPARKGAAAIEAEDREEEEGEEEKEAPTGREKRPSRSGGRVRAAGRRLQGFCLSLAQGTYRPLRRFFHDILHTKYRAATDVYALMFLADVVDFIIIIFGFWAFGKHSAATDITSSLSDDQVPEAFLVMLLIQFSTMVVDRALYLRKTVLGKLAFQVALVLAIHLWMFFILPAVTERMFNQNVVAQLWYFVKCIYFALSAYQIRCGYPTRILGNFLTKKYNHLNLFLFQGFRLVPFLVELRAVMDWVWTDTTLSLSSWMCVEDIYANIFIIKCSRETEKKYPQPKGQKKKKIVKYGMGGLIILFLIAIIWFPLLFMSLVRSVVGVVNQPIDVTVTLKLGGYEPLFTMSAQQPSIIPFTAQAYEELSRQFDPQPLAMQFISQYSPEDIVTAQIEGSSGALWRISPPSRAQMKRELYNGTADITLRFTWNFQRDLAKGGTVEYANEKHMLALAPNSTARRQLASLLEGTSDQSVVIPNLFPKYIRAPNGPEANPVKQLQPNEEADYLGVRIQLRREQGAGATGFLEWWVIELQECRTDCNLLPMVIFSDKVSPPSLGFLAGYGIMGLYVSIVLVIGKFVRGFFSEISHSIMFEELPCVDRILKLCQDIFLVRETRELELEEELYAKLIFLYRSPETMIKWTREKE

[11] = target: T1, NOX (Homo sapiens, UniProt P04839); conditions: in muscle; apocynin or its oxidation products; cited from earlier work
T1 construct: host or cells: muscle
T1 sequence (P04839 1-570): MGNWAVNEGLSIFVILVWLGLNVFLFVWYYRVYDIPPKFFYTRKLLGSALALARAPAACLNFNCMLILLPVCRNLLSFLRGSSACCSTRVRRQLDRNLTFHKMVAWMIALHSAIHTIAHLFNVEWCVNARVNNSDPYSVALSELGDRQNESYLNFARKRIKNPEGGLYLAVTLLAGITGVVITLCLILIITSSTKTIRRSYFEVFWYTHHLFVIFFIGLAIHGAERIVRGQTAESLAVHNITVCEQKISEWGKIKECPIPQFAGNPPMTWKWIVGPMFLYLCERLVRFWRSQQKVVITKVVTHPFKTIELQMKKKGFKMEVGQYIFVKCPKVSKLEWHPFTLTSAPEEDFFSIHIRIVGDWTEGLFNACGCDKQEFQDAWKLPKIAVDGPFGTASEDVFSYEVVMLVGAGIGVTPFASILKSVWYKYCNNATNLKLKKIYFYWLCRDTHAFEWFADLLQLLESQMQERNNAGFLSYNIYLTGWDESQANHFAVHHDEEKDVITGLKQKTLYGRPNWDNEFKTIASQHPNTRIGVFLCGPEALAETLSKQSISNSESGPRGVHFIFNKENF

[12] = system: young wild-type and young mdx FDB muscle fibers; experiment: Stretch-induced X-ROS in young fibers after increasing microtubule density; assay type: cell-based, mouse; conditions: young wild-type or young mdx fibers, taxol 10 μM
Description: All experiments were performed in custom rotating glass-bottom chamber (Four-hour Day Foundation, Towson, Md.) equipped with bath perfusion and mounted on BioRad Radiance fluorescent laser scanning confocal attached to an Olympus IX-70 inverted microscope (Olympus Corp., Centre Valley, Pa.). Cells were attached using micro-tweezers coated with the biological adhesive, MyoTak (Ionoptix, Milton, Mass.) and connected to a high-sensitivity force transducer (KG7) equipped with an anti-oscillation filter and a piezo-electric length controller (World Precision Instruments, Sarasota, Fla.). […]
as §1
ROS was measured using 6-carboxy-2″,7″-dichlorodihydrofluorescein diacetate (DCFH-DA) (Invitrogen, Carlsbad, Calif.) in dimethyl sulfoxide (DMSO). […] DCF fluorescence signals were processed as described (16). […]

[13] = system: young WT muscle cells; experiment: Stretch Ca2+ entry in young fibers after increasing microtubule density; assay type: cell-based, mouse; conditions: young WT treated with taxol
Description: Similar to DCF measurements, FDBs were suspended in Ringer's solution containing 5 μM fluo-4-AM (Invitrogen, Carlsbad, Ca) for 30 minutes at room temperature. Fluo-4-loaded cells were mounted on MUST and imaged using confocal line-scanning microscopy at 2 ms/line. Fluo-4 signal slopes before stretch and after were measured.

For `CCN(CC)CCCC(C)Nc1nc(C)cc(Nc2ccc3nc(C)cc(N)c3c2)n1` (racemic) [Rac1 inhibitor], which “stretch-induced ROS production (X-ROS)” value [1] is on record?
The value was “effective at abrogating X-ROS; also recorded: ameliorated the stretch-induced ROS production”.

For fulvene-5, which “stretch-induced ROS production (X-ROS)” value [1] is on record?
The value was “verified NOX2 as the source of the stretch dependent ROS”.

What about the “stretch-induced ROS production (X-ROS)” value ([1]; listed as Fulvene 5) of the same compound?
Its value is “effective at abrogating X-ROS”.

With `C/C1=C/C(=O)O[C@@H]2C[C@@H](CC[C@H](C)/C=C\C=C\CC1)O[C@@](O)([C@@H]1CSC(=O)N1)C2` [latrunculin A] as the compound, how does the “stretch-induced ROS production (X-ROS)” value [1] read?
The value was “had no effect”.

What about the “stretch-induced ROS production (X-ROS)” value ([1]; listed as latrunuculin A) of the same compound?
Its value is “no significant effect”.

With `COC(=O)[C@@H](N)CCCNC(=N)N[N+](=O)[O-]` [L-NAME] as the compound, how does the “stretch-induced ROS production (X-ROS)” value [1] read?
The value was “had no effect”.

For `COc1cc2c(c(OC)c1OC)-c1ccc(OC)c(=O)cc1[C@@H](NC(C)=O)CC2` [colchicine], which “microtubule density (α-tubulin IHC)” value [2] is on record?
The value was “decreased; also recorded: ablated the majority of the cytoskeletal structure”.

And the “stretch-induced ROS production (X-ROS)” value [1]?
The value was “prevented the increase in X-ROS; also recorded: little X-ROS; also recorded: ameliorated the stretch-induced ROS production”.

And the cytoskeletal stiffness [3]?
The cytoskeletal stiffness was “equally effective at decreasing cytoskeletal stiffness”.

And the “isometric contraction induced force loss” value [4]?
The value was “significant protection from force loss; also recorded: significantly decreased the isometric contraction induced force loss”.

And the “eccentric contraction induced force loss” value [5]?
Its value is “significantly ameliorated the contraction induced force drop; also recorded: significant protection from force loss; also recorded: significantly reduced contraction induced force loss”.

And the “eccentric contraction induced force drop in wild-type mice” value ([6]; mouse, in vivo)?
The value was “significantly decreased the eccentric contraction induced force loss”.

What about the “stretch dependent sarcolemmal Ca2+ influx” value [7] of the same compound?
The value was “inhibited; also recorded: prevented; also recorded: little X-ROS and Ca^2+ entry; also recorded: ablated”.

Which results are given for `C/C1=C\CC[C@@]2(C)O[C@@H]2[C@H]2OC(=O)[C@H](CN(C)C)[C@@H]2CC1` [dimethylaminoparthenolide]?
isometric contraction induced force loss [4]: significantly decreased the isometric contraction induced force loss; eccentric contraction induced force drop (FIG. 13) [5]: ameliorated the force drop; eccentric contraction induced force drop (FIG. 13) ([5]; listed as LC-1): reduced eccentric contraction induced force drop

What does the source list for “GsMTx4: mechano-sensitive (stretch activated) channel blocker (GCLEFWWKCNPNDDKCCRPKLKCSKLFKLCNFSF; ends and bridges not checked; cysteine pairing not given here; UniProt Q7YT39 47-80, looked up)”?
stretch activated calcium influx [8]: significantly reduced stretch activated Ca^2+ influx; inhibition of Piezo2 channel [9]: inhibited; inhibition of Piezo1 channel [10]: inhibited; stretch dependent sarcolemmal Ca2+ influx [7]: inhibited; also recorded: prevented; also recorded: ablated

Which “isometric contraction induced force loss” value [4] does the source give for `COc1cc(C(C)=O)ccc1O` [apocynin] here?
The value was “significant protection from force loss; also recorded: significantly decreased the isometric contraction induced force loss”.

And the “eccentric contraction induced force loss” value [5]?
The value was “significantly ameliorated the contraction induced force drop; also recorded: significant protection from force loss; also recorded: significantly reduced contraction induced force loss”.

What about the “eccentric contraction induced force drop in wild-type mice” value ([6]; WT mice, gastrocnemius, 18 eccentric contractions) of the same compound?
The value was “significantly decreased the eccentric contraction induced force loss”.

What about the “translocation of cytosolic p47phox and p67phox proteins / inactivation of NOX” value [11] of the same compound?
The value was “inhibit translocation”.

Which results are given for `CC(=O)O[C@H]1C(=O)[C@@]2(C)[C@H]([C@H](OC(=O)c3ccccc3)[C@]3(O)C[C@H](OC(=O)[C@H](O)[C@@H](NC(=O)c4ccccc4)c4ccccc4)C(C)=C1C3(C)C)[C@]1(OC(C)=O)CO[C@@H]1C[C@@H]2O` [taxol]?
microtubule density (α-tubulin IHC) [2]: increased; X-ROS in young fibers [12]: exuberant X-ROS; also recorded: made X-ROS competent; Ca2+ entry in young fibers [13]: exuberant X-ROS and Ca^2+ entry
